Experimental data as given in ChEMBL document CHEMBL1201862, “PubChem BioAssay data set” (2004).
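In this assay, cells in 96-well plates receive the compound at five concentrations for 48 hours. Endpoints are linearly interpolated between the surrounding concentrations. Abbreviation: GI50, concentration required for 50% inhibition of growth.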 Active and inactive are the calls of the source. Rule as the data show it: active = GI50 up to about 1.1 µM and inactive = higher. Where a SMILES comes first, the peptide text is derived from it. [ ]: non-standard residue; d: D form. The star is where a group is joined. NMeF = CN[CH](Cc1ccccc1)C(=O)O; NMeV = CN[CH](C(=O)O)C(C)C; Boc = CC(C)(C)OC(=O)*; OBn = c1ccc(CO*)cc1

Legend:
Experiment in all cases: NCI-60 cell line screen, 48 h
[1] = tested on: DLD-1
[2] = tested on: SNB-78
[3] = tested on: M19-MEL
[4] = tested on: KM-20L2
[5] = tested on: RXF 631
[6] = tested on: DMS-114
[7] = tested on: LXFL 529
[8] = tested on: XF498
[9] = tested on: HOP-18

SMILES	GI50 [1]	GI50 [2]	GI50 [3]	GI50 [4]	GI50 [5]	GI50 [6]	GI50 [7]	GI50 [8]	GI50 [9]
COc1ccc(NC(=O)CC2SC(Nc3ccc(Cl)cc3C)=NC2=O)c([N+](=O)[O-])c1 (stereo not drawn)	> 100 µM (inactive)	> 100 µM (inactive)	> 100 µM (inactive)	> 100 µM (inactive)	> 100 µM (inactive)	> 100 µM (inactive)	> 100 µM (inactive)		
c1ccc(CNn2nnc3ccccc32)cc1	> 100 µM (inactive)	> 100 µM (inactive)	> 100 µM (inactive)	> 100 µM (inactive)		> 100 µM (inactive)	> 100 µM (inactive)	> 100 µM (inactive)	
O=c1c2c(c1=O)-c1ccccc1CN2	> 100 µM (inactive)	> 100 µM (inactive)	> 100 µM (inactive)	> 100 µM (inactive)		> 100 µM (inactive)	> 100 µM (inactive)	20.6 µM (inactive)	
CC(C)OP(=O)(OC(C)C)/C(=N/Nc1ccccc1[N+](=O)[O-])NCCN/C(=N\Nc1ccccc1[N+](=O)[O-])P(=O)(OC(C)C)OC(C)C	34 µM (inactive)		34.9 µM (inactive)	24.9 µM (inactive)		31.7 µM (inactive)	19.5 µM (inactive)		
COc1ccc([C@@H]2CC(=O)NCCCNCCCCNCCCN2)cc1	> 100 µM (inactive)	> 100 µM (inactive)	> 100 µM (inactive)	> 100 µM (inactive)		> 100 µM (inactive)	> 100 µM (inactive)	> 100 µM (inactive)	59.6 µM (inactive)
NC1=NS(=O)(=O)Nc2nc(-c3ccc(Cl)cc3)[nH]c21	> 100 µM (inactive)		> 100 µM (inactive)	> 100 µM (inactive)		> 100 µM (inactive)	> 100 µM (inactive)		> 100 µM (inactive)
[O-][n+]1c2c([n+]([O-])c3ccccc31)CCCCCCCCCC2	> 100 µM (inactive)	> 100 µM (inactive)	> 100 µM (inactive)	17.5 µM (inactive)			68.1 µM (inactive)	> 100 µM (inactive)	
O=P1(Oc2ccccc2)C(c2ccccc2)C(c2ccccc2)=NN1c1ccccc1 (stereo not drawn)	18.3 µM (inactive)	46.5 µM (inactive)	23.1 µM (inactive)	20.7 µM (inactive)	35.4 µM (inactive)	19.5 µM (inactive)	19.8 µM (inactive)	43.2 µM (inactive)	44.1 µM (inactive)
O=C(O)c1ccc(C2C3C=CC(C3)C2[N+](=O)[O-])cc1 (stereo not drawn)	> 100 µM (inactive)	> 100 µM (inactive)	> 100 µM (inactive)	> 100 µM (inactive)	> 100 µM (inactive)	> 100 µM (inactive)	> 100 µM (inactive)	> 100 µM (inactive)	
C=C(NC(=O)C(=C)NC(=O)c1csc(C2=NC3c4csc(n4)C4NC(=O)c5csc(n5)C(C(C)(O)C(C)O)NC(=O)C5CSC(=N5)/C(=C/C)NC(=O)C(C(C)O)NC(=O)c5csc(n5)C3(CC2)NC(=O)C(C)NC(=O)C(=C)NC(=O)C(C)NC(=O)C(C(C)CC)NC2C=Cc3c(C(C)O)cc(nc3C2O)C(=O)OC4C)n1)C(N)=O (stereo not drawn)	1.76 µM (inactive)	2.54 µM (inactive)	1.37 µM (inactive)	2.84 µM (inactive)	3.61 µM (inactive)	2.72 µM (inactive)	0.449 µM (active)	0.355 µM (active)	2.72 µM (inactive)
CC(C)(CN1CCCCC1)C(=O)CC(SCCN)c1ccc(Cl)cc1 (stereo not drawn)	1.59 µM (inactive)	2.56 µM (inactive)	2.28 µM (inactive)	1.67 µM (inactive)	3.94 µM (inactive)	1.58 µM (inactive)	1.75 µM (inactive)	1.71 µM (inactive)	
O=Cc1ccccc1COC(=O)c1cc(C(=O)OCc2ccccc2C=O)c(C(=O)OCc2ccccc2C=O)cc1C(=O)OCc1ccccc1C=O	> 100 µM (inactive)	40.7 µM (inactive)	> 100 µM (inactive)	> 100 µM (inactive)		49.4 µM (inactive)	46.3 µM (inactive)	> 100 µM (inactive)	> 100 µM (inactive)
C[C@H]1CC(=O)C2=CCCC3(SCCCS3)[C@@H]2[C@H]1CO	> 100 µM (inactive)		78.5 µM (inactive)		> 100 µM (inactive)	> 100 µM (inactive)	> 100 µM (inactive)	> 100 µM (inactive)	> 100 µM (inactive)
CC(=O)O[C@]12CCCC1C1(O)C(O)CCCC12 (stereo partly drawn)		> 100 µM (inactive)	> 100 µM (inactive)	> 100 µM (inactive)		> 100 µM (inactive)	> 100 µM (inactive)	> 100 µM (inactive)	> 100 µM (inactive)
O=C1C2c3[nH]c4ccccc4c3C3CCCCC3C2C(=O)N1c1ccccc1 (stereo not drawn)	> 100 µM (inactive)	38.3 µM (inactive)	> 100 µM (inactive)		> 100 µM (inactive)	> 100 µM (inactive)	> 100 µM (inactive)		37.2 µM (inactive)
Clc1cc(Cl)c2n[se]nc2c1		> 100 µM (inactive)	> 100 µM (inactive)	> 100 µM (inactive)	> 100 µM (inactive)				> 100 µM (inactive)
N#C/C(=C\c1ccc2ccccc2c1)C(=O)c1ccccc1	> 100 µM (inactive)	> 100 µM (inactive)	> 87.9 µM (inactive)	> 100 µM (inactive)		> 100 µM (inactive)	> 86.7 µM (inactive)	> 100 µM (inactive)	> 100 µM (inactive)
Cc1nc(-c2cccnc2)sc1C(=O)/C=C/c1ccc(Cl)cc1Cl	> 100 µM (inactive)	> 100 µM (inactive)	> 100 µM (inactive)	> 100 µM (inactive)		84.3 µM (inactive)			> 100 µM (inactive)
O=C(OC1CCC(=C2SCCCS2)[C@H]1C1SCCCS1)c1ccccc1 (stereo partly drawn)	> 100 µM (inactive)		> 100 µM (inactive)	> 100 µM (inactive)	> 100 µM (inactive)	89.5 µM (inactive)	> 100 µM (inactive)		
O=c1ncccn1C1OC(CO)C(O)C1O (stereo not drawn)	> 100 µM (inactive)	> 100 µM (inactive)	> 100 µM (inactive)	> 100 µM (inactive)		> 100 µM (inactive)	> 100 µM (inactive)		> 100 µM (inactive)
COc1cc(/C=C\c2ccc(C)cc2)cc(OC)c1OC	0.00237 µM (active)	0.0001 µM (active)	0.00197 µM (active)	0.000117 µM (active)		0.000266 µM (active)	0.0004 µM (active)	0.00033 µM (active)	
CC(C)C(NC(=O)OC(C)(C)C)C(=O)N(C)C(Cc1ccccc1)C(=O)N(C)C(C(=O)N(C)C(C(=O)OCc1ccccc1)C(C)C)C(C)C (stereo not drawn) (Boc-V[NMeF][NMeV][NMeV]-OBn; configuration not given here)			> 100 µM (inactive)	> 100 µM (inactive)		62.5 µM (inactive)	7.6 µM (inactive)	19.4 µM (inactive)	
